Measurements taken from patent US7094781B2, “Sulfamides and their use as endothelin receptor antagonists” (Actelion Pharmaceuticals Ltd., priority 2000, dated 2006).
Like-named read-outs stand apart in the source and are kept apart here.

Key:
[1] = target: T1, ETA receptors (rat aortic rings) (Rattus norvegicus, UniProt P26684); assay: Inhibition of endothelin-1-induced contraction on isolated rat aortic rings
T1 construct: The thoracic aorta or trachea were excised, dissected and cut in 3–5 mm rings; from tissue; host or cells: thoracic aorta rings of adult Wistar rats, endothelium removed
T1 sequence (P26684 21-426): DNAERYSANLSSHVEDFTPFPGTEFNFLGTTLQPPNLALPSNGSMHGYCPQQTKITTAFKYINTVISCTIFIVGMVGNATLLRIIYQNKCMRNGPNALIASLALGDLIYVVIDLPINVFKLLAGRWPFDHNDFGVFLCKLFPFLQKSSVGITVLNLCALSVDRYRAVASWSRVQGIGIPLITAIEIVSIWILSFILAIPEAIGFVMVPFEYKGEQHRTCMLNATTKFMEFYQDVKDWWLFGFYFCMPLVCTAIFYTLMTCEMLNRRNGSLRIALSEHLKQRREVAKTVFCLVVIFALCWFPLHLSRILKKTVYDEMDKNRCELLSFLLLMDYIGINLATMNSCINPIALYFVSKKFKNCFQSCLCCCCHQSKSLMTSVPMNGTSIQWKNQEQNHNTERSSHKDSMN
Procedure: (§1) 2) Inhibition of Endothelin-induced Contractions on Isolated Rat Aortic Rings (ETA Receptors) and Rat Tracheal Rings (ETB Receptors):
(§2) The functional inhibitory potency of the endothelin antagonists was assessed by their inhibition of the contraction induced by endothelin-1 on rat aortic rings (ETA receptors) and of the contraction induced by sarafotoxin S6c on rat tracheal rings (ETB receptors). Adult Wistar rats were anesthetized and exsanguinated. The thoracic aorta or trachea were excised, dissected and cut in 3–5 mm rings. The endothelium/epithelium was removed by gentle rubbing of the intimal surface. […] The rings were connected to force transducers and isometric tension was recorded (EMKA Technologies SA, Paris, France). The rings were stretched to a resting tension of 3 g (aorta) or 2 g (trachea). […] The functional inhibitory potency of the test compound was assessed by calculating the concentration ratio, i.e. the shift to the right of the EC50 induced by different concentrations of test compound. EC50 is the concentration of endothelin needed to get a half-maximal contraction, pA2 is the negative logarithm of the antagonist concentration which induces a two-fold shift in the EC50 value.

[2] = target: T2, human recombinant ETB receptor (Homo sapiens, UniProt P24530); assay: Inhibition of [125I]ET-1 binding to membranes from CHO cells carrying human ETB receptors
T2 construct: expressed in transfected cells; host or cells: CHO cells (microsomal membranes)
T2 sequence (P24530 27-442): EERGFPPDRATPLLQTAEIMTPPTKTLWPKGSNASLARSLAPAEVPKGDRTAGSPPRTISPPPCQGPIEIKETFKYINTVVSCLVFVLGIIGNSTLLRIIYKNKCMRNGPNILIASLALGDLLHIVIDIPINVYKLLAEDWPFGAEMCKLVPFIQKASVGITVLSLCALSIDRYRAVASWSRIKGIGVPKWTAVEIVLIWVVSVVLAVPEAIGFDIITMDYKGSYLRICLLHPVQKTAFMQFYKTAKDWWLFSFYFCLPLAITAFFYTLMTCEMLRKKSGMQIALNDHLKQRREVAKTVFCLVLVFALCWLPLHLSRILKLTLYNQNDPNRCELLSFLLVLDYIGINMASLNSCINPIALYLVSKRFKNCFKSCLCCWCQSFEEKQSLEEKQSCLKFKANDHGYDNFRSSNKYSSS

[3] = target: T3, human recombinant ETA receptor (Homo sapiens, UniProt P25101); assay: Inhibition of [125I]ET-1 binding to membranes from CHO cells carrying human ETA receptors
T3 construct: expressed in transfected cells; host or cells: CHO cells (microsomal membranes)
T3 sequence (P25101 21-427): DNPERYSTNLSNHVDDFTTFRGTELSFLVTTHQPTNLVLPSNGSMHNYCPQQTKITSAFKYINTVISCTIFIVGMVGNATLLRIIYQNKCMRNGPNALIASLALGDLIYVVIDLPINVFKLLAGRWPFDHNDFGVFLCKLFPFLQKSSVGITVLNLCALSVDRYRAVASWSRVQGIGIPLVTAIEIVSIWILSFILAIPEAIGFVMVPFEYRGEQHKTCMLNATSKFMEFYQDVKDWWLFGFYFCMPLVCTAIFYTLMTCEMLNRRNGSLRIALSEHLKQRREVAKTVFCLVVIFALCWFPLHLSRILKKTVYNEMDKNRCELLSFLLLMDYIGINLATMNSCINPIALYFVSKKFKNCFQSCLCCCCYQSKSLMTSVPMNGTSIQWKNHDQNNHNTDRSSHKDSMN

[4] = target: T4, ETB receptors (rat tracheal rings) (Rattus norvegicus, UniProt P21451); assay: Inhibition of sarafotoxin S6c-induced contraction on isolated rat tracheal rings
T4 construct: The thoracic aorta or trachea were excised, dissected and cut in 3–5 mm rings; from tissue; host or cells: tracheal rings of adult Wistar rats, epithelium removed
T4 sequence (P21451 27-442): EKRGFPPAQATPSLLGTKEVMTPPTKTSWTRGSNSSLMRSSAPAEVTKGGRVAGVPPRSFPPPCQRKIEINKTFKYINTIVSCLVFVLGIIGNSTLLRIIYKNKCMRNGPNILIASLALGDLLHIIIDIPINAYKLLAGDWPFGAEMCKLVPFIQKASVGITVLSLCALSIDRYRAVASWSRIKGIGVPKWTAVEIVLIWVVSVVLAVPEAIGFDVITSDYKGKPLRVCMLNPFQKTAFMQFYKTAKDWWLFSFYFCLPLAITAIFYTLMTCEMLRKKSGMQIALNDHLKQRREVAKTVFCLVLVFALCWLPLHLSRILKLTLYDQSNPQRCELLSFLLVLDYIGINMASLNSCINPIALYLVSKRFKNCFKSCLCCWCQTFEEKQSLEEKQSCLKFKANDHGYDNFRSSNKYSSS
Procedure: as §1, §2

[5] = read-out: pA2 value ETA (converted)

| Compound | Kb [1, 5] | IC50 [2] | IC50 [3] | Kb [1] | Kb [4] | Kb ([4]; rat tracheal rings, contraction induced by sarafotoxin S6c, 10 min incubation, read-out: pA2 value ETB (converted)) |
| --- | --- | --- | --- | --- | --- | --- |
| COc1ccccc1Oc1c(NS(=O)(=O)Nc2ccc(C(C)C)cc2)nc(-c2ccncc2)nc1OCCOc1ncc(Br)cn1 [Example 5, 4-i-propyl-phenyl sulfamic acid-[6-[2-(5-bromo-pyrimidin-2-yloxy)-ethoxy]-5-(o-methoxy-phenoxy)-2-(4-pyridyl)-pyrimidin-4-yl]-amide] | 224 nM | 1280 nM | 28 nM |  |  |  |
| CSc1cnc(OCCOc2ncnc(NS(=O)(=O)NCc3ccccc3)c2-c2ccc(Br)cc2)nc1 [Example 102] |  | 65 nM | 0.46 nM | 3.98 nM | 174 nM |  |
| COc1ccccc1Oc1c(NS(=O)(=O)NCc2ccccc2)nc(SC)nc1OCCO [Example 203, benzylsulfamic acid [6-(2-hydroxy-ethoxy)-5-(2-methoxy-phenoxy)-2-methylsulfanyl-pyrimidin-4-yl]-amide] | 20.4 nM |  |  |  |  | 1450 nM |
| Cc1ccc(-c2c(NS(=O)(=O)NCC3CC3)ncnc2OCCOc2ncc(Br)cn2)cc1 [Example 119] |  | > 1000 nM | 4.2 nM | 41.7 nM |  |  |
| COc1ccc(CNS(=O)(=O)Nc2nc(-c3ncccn3)nc(OC)c2Oc2ccccc2OC)cc1 [Example 51] | 282 nM | 306 nM | 13.4 nM |  |  |  |
| COc1ccccc1Oc1c(NS(=O)(=O)NCC2CCCCC2)nc(-c2ncccn2)nc1OCCOc1ncc(Br)cn1 [Example 133] |  | 212 nM | 1.7 nM | 19.1 nM |  |  |
| O=S(=O)(NCc1cccs1)Nc1ncnc(OCCOc2ncc(Br)cn2)c1-c1ccc(Cl)cc1 [Example 20] |  | 1720 nM | 4.9 nM | 61.7 nM |  |  |
| COc1ccccc1Oc1c(NS(=O)(=O)NCc2ccccc2)nc(-c2ncccn2)nc1OCCOC(=O)Nc1ccccn1 [Example 41] |  | 41.6 nM | 3.2 nM | 4.27 nM |  |  |
| O=S(=O)(NCc1ccccn1)Nc1ncnc(OCCOc2ncc(Br)cn2)c1-c1ccc(Cl)cc1 [Example 18] | 7.08 nM | 3330 nM | 8.5 nM |  | > 10000 nM |  |
